The target of the experiment is GluA1o-γ8 (GRIA1o-CACNG8 fusion construct; TARP γ8 dependent AMPA receptor) (Homo sapiens (Human), UniProt P42261+Q8WXS5). In words: Calcium flux assay (FLIPR), inhibition of glutamate response of GluA1o-γ8 channel. The experiment is classed as cell-based. The following applies: HEK293 cells stably expressing GRIA1o-CACNG8 fusion; 15 μM glutamate; pIC50 = negative log of IC50 in molar; read-out: GluR1-γ8 (pIC50) (converted). In outline:
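Potency is the midpoint of a four-parameter logistic fit to control-normalized FLIPR calcium responses elicited by 15 μM glutamate. Stable HEK293 cells carried a fused GluA1o-γ8 construct and were preincubated with compound and calcium dye in pH 7.4 HEPES buffer.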
In general terms: A change in cytosolic calcium serves as a functional read-out for many receptors and channels.
Chain of GluA1o-γ8 (GRIA1o-CACNG8 fusion construct; TARP γ8 dependent AMPA receptor) (P42261 other isoform, or with tags, fused parts or gaps): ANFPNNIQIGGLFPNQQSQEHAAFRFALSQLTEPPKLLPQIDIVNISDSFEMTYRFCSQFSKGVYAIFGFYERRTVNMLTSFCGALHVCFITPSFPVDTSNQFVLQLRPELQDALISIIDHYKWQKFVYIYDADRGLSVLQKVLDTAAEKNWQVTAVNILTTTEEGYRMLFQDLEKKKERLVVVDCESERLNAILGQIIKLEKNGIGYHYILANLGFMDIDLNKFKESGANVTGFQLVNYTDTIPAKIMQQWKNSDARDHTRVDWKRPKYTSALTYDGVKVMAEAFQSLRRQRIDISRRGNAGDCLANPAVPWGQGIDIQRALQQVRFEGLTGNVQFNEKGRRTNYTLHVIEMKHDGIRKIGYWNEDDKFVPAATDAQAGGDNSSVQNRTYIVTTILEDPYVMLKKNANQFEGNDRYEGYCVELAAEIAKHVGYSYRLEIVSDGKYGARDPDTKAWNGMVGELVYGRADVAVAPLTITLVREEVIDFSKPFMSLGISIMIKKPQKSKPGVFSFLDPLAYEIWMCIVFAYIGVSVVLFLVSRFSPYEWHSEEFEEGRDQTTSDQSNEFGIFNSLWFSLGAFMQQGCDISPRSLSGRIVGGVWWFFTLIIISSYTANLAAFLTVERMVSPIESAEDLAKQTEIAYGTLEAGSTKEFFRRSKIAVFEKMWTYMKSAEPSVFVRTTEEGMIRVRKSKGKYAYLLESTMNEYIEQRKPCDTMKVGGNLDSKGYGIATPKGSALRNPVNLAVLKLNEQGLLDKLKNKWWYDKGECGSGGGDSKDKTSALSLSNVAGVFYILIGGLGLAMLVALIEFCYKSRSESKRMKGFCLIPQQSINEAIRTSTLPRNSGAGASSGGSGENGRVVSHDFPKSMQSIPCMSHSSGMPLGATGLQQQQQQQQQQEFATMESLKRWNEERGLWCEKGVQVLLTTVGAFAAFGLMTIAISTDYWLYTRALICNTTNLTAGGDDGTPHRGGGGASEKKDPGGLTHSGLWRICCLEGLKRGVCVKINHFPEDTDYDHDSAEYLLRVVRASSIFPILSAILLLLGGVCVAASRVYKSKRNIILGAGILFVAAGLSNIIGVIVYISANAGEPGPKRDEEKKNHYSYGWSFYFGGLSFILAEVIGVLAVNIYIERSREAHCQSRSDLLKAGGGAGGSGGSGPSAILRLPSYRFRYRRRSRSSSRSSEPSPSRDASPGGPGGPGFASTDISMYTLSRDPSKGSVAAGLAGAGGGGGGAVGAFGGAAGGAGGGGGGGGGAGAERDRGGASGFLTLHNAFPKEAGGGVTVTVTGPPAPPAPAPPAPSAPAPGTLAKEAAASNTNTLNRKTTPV
`O=C1Cc2cc(-c3c(-c4ccc(F)cc4)nn4c(N5CC(F)(F)C5)nccc34)ccc2N1` [Example 176, 5-[7-(3,3-Difluoroazetidin-1-yl)-2-(4-fluorophenyl)pyrazolo[1,5-c]pyrimidin-3-yl]indolin-2-one]: the IC50 is 3.16 nM.

On to `CC1COCCN1c1nccc2c(-c3ccc4c(c3)CC(=O)N4)c(-c3ccc(F)cc3)nn12` (stereo not drawn) [Example 177, 5-[2-(4-Fluorophenyl)-7-(3-methylmorpholin-4-yl)pyrazolo[1,5-c]pyrimidin-3-yl]indolin-2-one], for which the IC50 was 0.2 nM.

Take `O=S1(=O)Cc2cc(-c3c(-c4ccc(F)cc4)nn4c(N5CCOCC5)nccc34)ccc2N1` [Example 178, 5-[2-(4-Fluorophenyl)-7-morpholino-pyrazolo[1,5-c]pyrimidin-3-yl]-1,3-dihydro-2,1-benzothiazole 2,2-dioxide]: the IC50 is 2 nM.

As for `O=C1Cc2cc(-c3c(-c4ccc(F)cc4)nn4c(N5CC(O)C5)nccc34)ccc2N1` [Example 179, 5-[2-(4-Fluorophenyl)-7-(3-hydroxyazetidin-1-yl)pyrazolo[1,5-c]pyrimidin-3-yl]indolin-2-one], the IC50 was 6.31 nM.

`O=C1Cc2cc(-c3c(-c4ccc(F)cc4)nn4c(N5CC(CO)C5)nccc34)ccc2N1` [Example 180, 5-[2-(4-Fluorophenyl)-7-[3-(hydroxymethyl)azetidin-1-yl]pyrazolo[1,5-c]pyrimidin-3-yl]indolin-2-one]: the IC50 was 2 nM.

As for `CC(C)(C)c1nn2c(N3CCC(O)CC3)nccc2c1-c1ccc2c(c1)CC(=O)N2` [Example 181, 5-[2-tert-Butyl-7-(4-hydroxy-1-piperidyl)pyrazolo[1,5-c]pyrimidin-3-yl]indolin-2-one], the IC50 was 200 nM.

With `CC(C)(C)c1nn2c(N3CCOCC3)nccc2c1-c1ccc2c(c1)CC(=O)N2` [Example 182, 5-(2-tert-Butyl-7-morpholino-pyrazolo[1,5-c]pyrimidin-3-yl)indolin-2-one], the IC50 was 63.1 nM.

As to `CC(C)(C)c1nn2c(N3CC(F)(F)C3)nccc2c1-c1ccc2c(c1)CC(=O)N2` [Example 183, 5-[2-tert-Butyl-7-(3,3-difluoroazetidin-1-yl)pyrazolo[1,5-c]pyrimidin-3-yl]indolin-2-one], the IC50 is 63.1 nM.

Turning to `CC1(O)CN(c2nccc3c(-c4ccc5c(c4)CC(=O)N5)c(-c4ccc(F)cc4)nn23)C1` [Example 184, 5-[2-(4-Fluorophenyl)-7-(3-hydroxy-3-methyl-azetidin-1-yl)pyrazolo[1,5-c]pyrimidin-3-yl]indolin-2-one], the IC50 was 3.16 nM.

With `O=C1Cc2cc(-c3c(-c4ccc(F)cc4)nc4c(N5CCC6(CC5)N=N6)nccn34)ccc2N1` [Example 185, 5-(2-(4-Fluorophenyl)-8-(1,2,6-triazaspiro[2.5]oct-1-en-6-yl)imidazo[1,2-a]pyrazin-3-yl)indolin-2-one], the IC50 was 0.158 nM.

On to `CC1(O)CCN(c2nccc3c(-c4ccc5c(c4)CC(=O)N5)c(-c4ccc(F)cc4)nn23)CC1` [Example 186, 5-[2-(4-Fluorophenyl)-7-(4-hydroxy-4-methyl-1-piperidyl)pyrazolo[1,5-c]pyrimidin-3-yl]indolin-2-one], for which the IC50 is 0.2 nM.

With `O=C1Cc2cc(-c3c(-c4ccccc4)nn4c(N5CCC(O)CC5)nccc34)ccc2N1` [Example 187, 5-[7-(4-Hydroxy-1-piperidyl)-2-phenyl-pyrazolo[1,5-c]pyrimidin-3-yl]indolin-2-one], the IC50 was 0.158 nM.

In the case of `O=C1Cc2cc(-c3c(-c4ccccc4)nn4c(N5CCC(F)CC5)nccc34)ccc2N1` [Example 188, 5-[7-(4-Fluoro-1-piperidyl)-2-phenyl-pyrazolo[1,5-c]pyrimidin-3-yl]indolin-2-one], the IC50 was 0.501 nM.

`COC1CCN(c2nccc3c(-c4ccc5c(c4)CC(=O)N5)c(-c4ccccc4)nn23)CC1` [Example 189, 5-[7-(4-Methoxy-1-piperidyl)-2-phenyl-pyrazolo[1,5-c]pyrimidin-3-yl]indolin-2-one]: the IC50 was 0.158 nM.

As for `O=C1Cc2cc(-c3c(-c4ccc(F)cc4)nn4c(N5CCC(F)CC5)nccc34)ccc2N1` [Example 190, 5-[2-(4-Fluorophenyl)-7-(4-fluoro-1-piperidyl)pyrazolo[1,5-c]pyrimidin-3-yl]indolin-2-one], the IC50 was 0.2 nM.

For the compound `COC1CN(c2nccc3c(-c4ccc5c(c4)CC(=O)N5)c(-c4ccccc4)nn23)C1` [Example 191, 5-[7-(3-Methoxyazetidin-1-yl)-2-phenyl-pyrazolo[1,5-c]pyrimidin-3-yl]indolin-2-one], the IC50 is 2.51 nM.

On to `O=C1Cc2cc(-c3c(-c4ccccc4)nn4c(OC5CCCC5)nccc34)ccc2N1` [Example 192, 5-[7-(Cyclopentoxy)-2-phenyl-pyrazolo[1,5-c]pyrimidin-3-yl]indolin-2-one], for which the IC50 was 7.94 nM.

Regarding `CC(C)Oc1nccc2c(-c3ccc4c(c3)CC(=O)N4)c(-c3ccccc3)nn12` [Example 194, 5-(7-Isopropoxy-2-phenyl-pyrazolo[1,5-c]pyrimidin-3-yl)indolin-2-one], the IC50 is 31.6 nM.

`COC1CN(c2nccc3c(-c4ccc5c(c4)CC(=O)N5)c(C4CCCC4)nn23)C1` [Example 195, 5-[2-Cyclopentyl-7-(3-methoxyazetidin-1-yl)pyrazolo[1,5-c]pyrimidin-3-yl]indolin-2-one]: the IC50 was 316 nM.

`O=C1Cc2cc(-c3c(C4CCCC4)nn4c(N5CC(F)C5)nccc34)ccc2N1` [Example 196, 5-[2-Cyclopentyl-7-(3-fluoroazetidin-1-yl)pyrazolo[1,5-c]pyrimidin-3-yl]indolin-2-one]: the IC50 was 158 nM.

For `CO[C@H]1CCN(c2nccc3c(-c4ccc5c(c4)CC(=O)N5)c(-c4ccccc4)nn23)C1` [Example 197, 5-[7-[(3S)-3-Methoxypyrrolidin-1-yl]-2-phenyl-pyrazolo[1,5-c]pyrimidin-3-yl]indolin-2-one], the IC50 was 1.26 nM.

In the case of `Cc1cc2c(-c3ccc4c(c3)CC(=O)N4)c(-c3ccccc3)nn2c(N2CCOCC2)n1` [Example 198, 5-(5-Methyl-7-morpholino-2-phenyl-pyrazolo[1,5-c]pyrimidin-3-yl)indolin-2-one], the IC50 was 3.16 nM.

Regarding `CC(C)(C)c1nn2c(N3CC4(COC4)C3)nccc2c1-c1ccc2c(c1)CC(=O)N2` [Example 199, 5-[2-tert-Butyl-7-(6-oxa-2-azaspiro[3.3]heptan-2-yl)pyrazolo[1,5-c]pyrimidin-3-yl]indolin-2-one], the IC50 was 316 nM.

For `O=C1Cc2cc(-c3c(-c4ccccc4)nn4c(N5CC(F)C5)nccc34)ccc2N1` [Example 200, 5-[7-(3-Fluoroazetidin-1-yl)-2-phenyl-pyrazolo[1,5-c]pyrimidin-3-yl]indolin-2-one], the IC50 is 3.16 nM.

As to `O=C1Cc2cc(-c3c(-c4ccccc4)nn4c(N5CCOCC5)nccc34)ccc2N1` [Example 201, 5-(7-Morpholino-2-phenyl-pyrazolo[1,5-c]pyrimidin-3-yl)indolin-2-one], the IC50 was 1 nM.

As to `CO[C@@H]1CCN(c2nccc3c(-c4ccc5c(c4)CC(=O)N5)c(-c4ccccc4)nn23)C1` [Example 202, 5-[7-[(3R)-3-Methoxypyrrolidin-1-yl]-2-phenyl-pyrazolo[1,5-c]pyrimidin-3-yl]indolin-2-one], the IC50 was 2.51 nM.

Consider `O=C1Cc2cc(-c3c(C4CCCC4)nn4c(N5CCOCC5)nccc34)ccc2N1` [Example 203, 5-(2-Cyclopentyl-7-morpholino-pyrazolo[1,5-c]pyrimidin-3-yl)indolin-2-one], for which the IC50 is 63.1 nM.

Consider `O=C1Cc2cc(-c3c(C4CCCC4)nn4c(N5CC(O)C5)nccc34)ccc2N1` [Example 205, 5-[2-Cyclopentyl-7-(3-hydroxyazetidin-1-yl)pyrazolo[1,5-c]pyrimidin-3-yl]indolin-2-one], for which the IC50 is 631 nM.

With `COc1nccc2c(-c3ccc4c(c3)CC(=O)N4)c(-c3ccccc3)nn12` [Example 206, 5-(7-Methoxy-2-phenyl-pyrazolo[1,5-c]pyrimidin-3-yl)indolin-2-one], the IC50 was 398 nM.

`O=C1Cc2cc(-c3c(-c4ccccc4)nn4c(N5CCOCC5)ncc(Br)c34)ccc2N1` [Example 207, 5-(4-Bromo-7-morpholino-2-phenyl-pyrazolo[1,5-c]pyrimidin-3-yl)indolin-2-one]: the IC50 is 0.398 nM.

For `Cc1cnc(N2CCOCC2)n2nc(-c3ccccc3)c(-c3ccc4c(c3)CC(=O)N4)c12` [Example 208, 5-(4-Methyl-7-morpholino-2-phenyl-pyrazolo[1,5-c]pyrimidin-3-yl)indolin-2-one], the IC50 was 0.126 nM.

As for `N#Cc1ccc(-c2nc3c(N4CCNC(=O)C4)nccn3c2-c2ccc3[nH]ncc3c2)cc1` [Example 209, 4-[3-(1H-Indazol-5-yl)-8-(3-oxopiperazin-1-yl)imidazo[1,2-a]pyrazin-2-yl]benzonitrile], the IC50 is 2 nM.

In the case of `N#Cc1ccc(-c2nc3c(N4CCNC(=O)C4)nccn3c2-c2ccc3c(c2)CC(=O)N3)cc1` [Example 210, 4-[3-(2-Oxoindolin-5-yl)-8-(3-oxopiperazin-1-yl)imidazo[1,2-a]pyrazin-2-yl]benzonitrile], the IC50 was 20 nM.

For `N#Cc1ccc(-c2nc3c(N4CCNC(=O)C4)nccn3c2-c2ccc3[nH]c(=O)[nH]c3c2)cc1` [Example 211, 4-[3-(2-Oxo-1,3-dihydrobenzimidazol-5-yl)-8-(3-oxopiperazin-1-yl)imidazo[1,2-a]pyrazin-2-yl]benzonitrile], the IC50 was 3.98 nM.

Consider `Cc1cnc(N2CCOCC2)n2nc(-c3ccccc3)c(-c3ccc4[nH]ncc4c3)c12` [Example 212, 4-[3-(1H-Indazol-5-yl)-4-methyl-2-phenyl-pyrazolo[1,5-c]pyrimidin-7-yl]morpholine], for which the IC50 is 0.0794 nM.

Take `COC1CCN(c2nccc3c(-c4ccc5[nH]c(=O)sc5c4)c(-c4ccccc4)nn23)CC1` [Example 213, 6-[7-(4-Methoxy-1-piperidyl)-2-phenyl-pyrazolo[1,5-c]pyrimidin-3-yl]-3H-1,3-benzothiazol-2-one]: the IC50 is 0.0631 nM.

The record behind these values is patent publication US10513523B2, “Imidazopyrazines and pyrazolopyrimidines and their use as AMPA receptor modulators” (Janssen Pharmaceutica NV, priority 2015, dated 2019).
